Assay results as given in PubChem BioAssay AID1959 (Broad Institute, 2009).
Activity calls are given as the source filed them.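 How the source made its calls: active means growth-inhibition EC50 no more than tenfold above the top tested dose; inconclusive means flat fit between 30% and 70% inhibition, or unreliable fit; inactive means EC50 more than tenfold above the top tested dose.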

Each compound was assayed on E. coli NEB5alpha growth, BacTiter-Glo luminescence, 4 h (assay: Escherichia coli growth inhibition, dose response, counter-screen for MEX-5/POS-1 RNA-binding inhibitor project, luminescence, NEB5alpha (AID 1959);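 further: pUC19-transformed ampicillin-resistant cells grown in LB with ampicillin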).

SMILES	EC50
COc1ccc2c3c([nH]c2c1)C1CC2C(CC(O)C(OC)C2C(=O)O)CN1CC3 (configuration not stated)	> 11 µM (inactive)
NS(=O)(=O)c1ccc(NC(=S)NNC(=O)CCC(=O)Nc2ccccc2Cl)cc1	> 11 µM (inactive)
Cc1ccc(C(=O)O)cc1-n1c(C)cc(C=O)c1C	> 11 µM (inactive)
CN1C(=O)NC(c2ccccc2[N+](=O)[O-])C2=C1CCCC2=O (configuration not stated)	> 11 µM (inactive)
O=C(O)CCc1ccc(-c2ccccc2)n1-c1ccc(C(=O)O)cc1	> 11 µM (inactive)
COc1ccc2c(c1)c1nc3ccccc3nc1n2Cc1ccc(OC)c(OC)c1	> 11 µM (inactive)
O=C(Nc1cc(=O)[nH]c2ncnn12)c1ccc(Cl)cc1Cl	> 11 µM (inactive)
COc1cc2c3nnc(-c4ccccc4)c-3cn(Cc3ccc(F)cc3)c2cc1OC	> 11 µM (inactive)
COc1ccccc1Nc1nc2nonc2nc1N1CCCCC1C (configuration not stated)	> 11 µM (inactive)
COc1ccc(NC(=O)NS(=O)(=O)c2ccc(C)cc2)cn1	> 11 µM (inactive)
Cc1ccn2cc(-c3ccc(O)c(O)c3)nc2c1	> 11 µM (inactive)
CC(C)/C=C1\CC/C(=C\c2ccc(N(C)C)cc2)C1=O	> 11 µM (inactive)
COc1cccc(CN2C(=O)C3(C(C#N)=C(N)OC4=C3C(=O)CCC4)c3ccccc32)c1 (configuration not stated)	> 11 µM (inactive)
O=C(c1ccc(Br)o1)N1CCN=C1SCc1cccc(F)c1	> 11 µM (inactive)
Cc1nc2ccccc2c(=O)n1/N=C/c1ccc(O)c(O)c1O	> 11 µM (inactive)
O=C(NCc1ccccn1)C1Nc2ccc(OC(F)(F)F)cc2C2C=CCC12 (configuration not stated)	> 11 µM (inactive)
CCN1C(=O)/C(=C2/C=Cc3ccccc3N2C)OC1=S	> 11 µM (inactive)
CNc1c(N)n(Cc2ccccc2)c(=O)[nH]c1=O	> 11 µM (inactive)
O=C1C2CC=C(Cl)CC2C(=O)N1CCc1ccccc1 (configuration not stated)	> 11 µM (inactive)
Cn1c(=O)c2[nH]c(N/N=C(/C#N)C(N)=O)nc2n(C)c1=O	> 11 µM (inactive)
NS(=O)(=O)c1ccc(-c2cccc(/C=C3\SC(=O)NC3=O)c2)cc1	> 11 µM (inactive)
CC1(C)CC(=O)C2=C(C1)OC(N)=C(C#N)C21C(=O)N(CN2CCOCC2)c2ccccc21 (configuration not stated)	> 11 µM (inactive)
CNCc1ccccc1Sc1ccc(O)c(O)c1	> 11 µM (inactive)

SMILES	EC50
COC(=O)CNC(=O)C1Nc2ccccc2C2C=CCC12 (configuration not stated)	> 11 µM (inactive)
CCOC(=O)c1c(/N=C/C2C(=O)NC(=S)NC2=O)sc(C)c1C	> 11 µM (inactive)
Cc1ccc(S(=O)(=O)Nc2ccccc2F)cc1C(=O)NNC(=O)c1ccccc1O	> 11 µM (inactive)
CCN1C(=O)C(=Cc2ccc(N3CCOCC3)o2)C(=O)N(CC)C1=S	> 11 µM (inactive)
C=CCn1c(Cc2nc3ccccc3[nH]2)n[nH]c1=S	> 11 µM (inactive)
COC(=O)c1sccc1NC(=O)c1ccc(C)s1	> 11 µM (inactive)
Cc1ccc(-c2ccccc2)n1-c1ccc(C(=O)O)cc1	> 11 µM (inactive)
O=C(N/N=C/c1c(O)ccc2ccccc12)Nc1ccccc1	> 11 µM (inactive)
CC(C)C1Nc2c(O)cc(Cl)c([N+](=O)[O-])c2C2C=CCC21 (configuration not stated)	> 11 µM (inactive)
COc1cc2c(cc1OC)-c1c(OC)c(OC)cc3ccnc(c13)C2=O	> 11 µM (inactive)
Cc1ccc(N2C(=O)/C(=C/c3ccc(CN(CCC#N)S(C)(=O)=O)o3)C(=O)NC2=S)cc1	> 11 µM (inactive)
O=c1[nH]c(CSc2ncccn2)nc2c1cnn2-c1ccccc1	> 11 µM (inactive)
CCOC(=O)Cc1csc(NC(=O)c2sc3nc4cc(C)ccc4cc3c2N)n1	> 11 µM (inactive)
CC(C)(C)OC(=O)NCCCC1=CC2=CC(=O)C(C)(OC(=O)C3CCCC3)C(=O)C2=CO1 (configuration not stated)	> 11 µM (inactive)
O=C1CS/C(=N/N=C/c2cccs2)N1	> 11 µM (inactive)
CCCCN(C)C(=O)c1cccc(OC2CCN(CC(C)(C)C)CC2)c1	> 11 µM (inactive)
Cn1c(=O)cc2c3c(c(N4CCCCC4)ccc31)C(=O)c1ccccc1-2	> 11 µM (inactive)
COc1ccccc1NC(=S)NNC(=O)c1cc(C)n(C)n1	> 11 µM (inactive)
CCOC(CNC(=O)CCc1c(C)nc2nc(C)nn2c1C)OCC	> 11 µM (inactive)
O=S(=O)(Nc1ccc(O)c2ccccc12)c1ccc(Br)cc1	> 11 µM (inactive)
O=C1C=C(O)c2c(O)cc(O)c(O)c2C1=O	> 11 µM (inactive)
Cc1cccc(NC(=O)c2sc3nc(-c4ccccc4)cn3c2C)n1	> 11 µM (inactive)
COc1ccc(-c2nc(CS(=O)CC(=O)NCc3ccccn3)c(C)o2)cc1 (configuration not stated)	> 11 µM (inactive)

SMILES	EC50
CCCCc1ccc(NC(=O)CSC2=NN3CCCC(=O)N=C3S2)cc1	> 11 µM (inactive)
Oc1[nH]c2ccccc2c1N=Nc1cccc(Cl)c1	> 11 µM (inactive)
Cc1ccc(S(=O)(=O)Nc2ccccc2F)cc1C(=O)NNC(=O)c1csc(N2CCOCC2)n1	> 11 µM (inactive)
O=C(CCSc1nc2ccccc2s1)N/N=C/c1c(O)ccc2ccccc12	> 11 µM (inactive)
COc1ccc(C(=O)c2sc3nc(C)cc(-c4cccs4)c3c2N)cc1	> 11 µM (inactive)
CCN(CC)CCN1C(=O)C(O)=C(C(=O)c2cc3cccc(OC)c3o2)C1c1ccc(F)cc1 (configuration not stated)	> 11 µM (inactive)
COc1ccc(/C=C/C(=O)c2c(O)n(CCC3=CCCCC3)c(=O)[nH]c2=O)cc1OC	> 11 µM (inactive)
O=C(c1ccccc1)[C@@H]1[C@@H]2C(=O)N(c3ccc(F)cc3)C(=O)[C@@H]2C2CCCN21 (some centres not stated)	> 11 µM (inactive)
NC1=CC(=O)c2cccc3cccc1c23	> 11 µM (inactive)
Cc1nnc(N2C(=O)C(O)=C(C(=O)c3ccco3)C2c2ccc(C(C)(C)C)cc2)s1 (configuration not stated)	> 11 µM (inactive)
O=C(c1ccc(Br)s1)N1CCN(c2ccccn2)CC1	> 11 µM (inactive)
Nc1c(C(=O)Nc2nc3ccccc3s2)sc2nc(-c3cccs3)ccc12	> 11 µM (inactive)
Cc1ccccc1OCC(=O)Nc1ccc2c(c1)C(=O)c1ccccc1C2=O	> 11 µM (inactive)
CCOc1ccc(-n2c(O)c(C=Nc3ccc(N(CC)CC)cc3)c(=O)[nH]c2=O)cc1	> 11 µM (inactive)
O=C(/C=C/c1ccc([N+](=O)[O-])o1)NNC(=O)c1ccc(F)cc1	0.232 µM
Cc1ccc(N2C(=O)c3cccc4c(N5CCN(C)CC5)ccc(c34)C2=O)c2cccnc12	> 11 µM (inactive)
C=CCSc1nnc(N2C(=O)C(O)=C(C(=O)c3ccco3)C2c2ccc(F)cc2)s1 (configuration not stated)	> 11 µM (inactive)
Cc1n[nH]c(=O)nc1N/N=C/c1ccc(O)c([N+](=O)[O-])c1	> 11 µM (inactive)
COC(=O)c1ccc(COc2ccc(/C=C(\C#N)c3nc4ccccc4[nH]3)cc2OC)o1	> 11 µM (inactive)
Cc1ccc(S(=O)(=O)NNc2nc3ccccc3nc2C(F)(F)F)cc1	> 11 µM (inactive)
Oc1ccc(-c2nc(-c3ccc(O)c(O)c3)cs2)cc1	> 11 µM (inactive)
Cc1ccc(N=Cc2cc(Br)cc(Cl)c2O)cc1	> 11 µM (inactive)
COc1cc(/C=N\Nc2ccc([N+](=O)[O-])cc2)ccc1OCC(=O)Nc1ccc(C)c(C)c1	> 11 µM (inactive)

SMILES	EC50
Cc1cc2c3c(c1)C1(C(=O)N3C(C)(C)CC2C)C(C#N)=C(N)OC2=C1C(=O)CC(C)(C)C2 (configuration not stated)	> 11 µM (inactive)
CC1=C(C#N)C(=O)NC(=O)/C1=C/c1ccc(-c2ccc(S(N)(=O)=O)cc2)o1	> 11 µM (inactive)
O=C(N/N=C\C1C(=O)NC(=S)N(c2ccccc2)C1=O)c1ccc(O)cc1 (configuration not stated)	> 11 µM (inactive)
N#CC1=C(N)OC2=C(C(=O)CCC2)C1c1ccc2c(c1)OCO2 (configuration not stated)	> 11 µM (inactive)
O=S(=O)(Nc1cc(Sc2cccc3cccnc23)c(O)c2ccccc12)c1ccc(F)cc1	> 11 µM (inactive)
N=c1c(C(=O)NCC2CCCO2)cc2c(=O)n3ccccc3nc2n1Cc1ccccc1Cl (configuration not stated)	> 11 µM (inactive)
Cc1cccn2c(=O)c3cc(S(=O)(=O)c4ccccc4)c(=N)n(Cc4cccnc4)c3nc12	> 11 µM (inactive)
COc1ccc(/C=C(\C#N)C(=O)NCC2CCCO2)cc1OC (configuration not stated)	> 11 µM (inactive)
CCCCCCn1c(O)c(C=Nc2ccccc2N2CCOCC2)c(=O)[nH]c1=S	> 11 µM (inactive)
O=C(O)c1[nH]c2ccccc2c1C(c1cc(Cl)cc([N+](=O)[O-])c1O)c1c(C(=O)O)[nH]c2ccccc12	> 11 µM (inactive)
COc1cccc(/C=N/Nc2ncnc(N)c2[N+](=O)[O-])c1OC	> 11 µM (inactive)
CCN(CC)c1ccc(N=Nc2ncn[nH]2)cc1	> 11 µM (inactive)
Cc1nc2sc(-c3ccccc3)cc2c(=O)n1N	> 11 µM (inactive)
COc1ccccc1NCC(=O)N/N=C/c1c(O)ccc2ccccc12	> 11 µM (inactive)
COc1cccc(-n2c(O)c(C=Nc3c(C)n(C)n(-c4ccccc4)c3=O)c(=O)[nH]c2=O)c1	> 11 µM (inactive)
COc1cc(O)c(C(=O)O)c(-c2cc(O)c(O)cc2C)c1	> 11 µM (inactive)
O=Cc1c(-c2ccccc2)nc2ccccn12	> 11 µM (inactive)
CC1(OC(=O)c2ccc(Cl)nc2)C(=O)C=C2C=C(c3ccsc3)OC=C2C1=O (configuration not stated)	> 11 µM (inactive)
Cn1cc(/C=N/n2cnc3scc(-c4ccc(Cl)cc4)c3c2=O)c2ccccc21	> 11 µM (inactive)
CSc1nncc(/C(C)=N\Nc2ccccc2)n1	> 11 µM (inactive)
c1ccc2[nH]c3cc4ncnc4cc3nc2c1	> 11 µM (inactive)
NC(=O)C1(N2CCCCC2)CCN(Cc2nc(-c3cccs3)no2)CC1	> 11 µM (inactive)
Cc1n[nH]c(C)c1N1C(=O)c2cccc3c(N4CCCCCC4)ccc(c23)C1=O	> 11 µM (inactive)
